Values of other authors in patent publication US20230364199A1, “IMPROVEMENT OF PHYSICAL AND MENTAL WELL-BEING OF PATIENTS WITH HYPOPARATHYROIDISM” (ASCENDIS PHARMA BONE DISEASES A/S, priority 2020, published 2023).

Key:
[1] = test system: patients with hypoparathyroidism
[2] = test system: patients with hypoparathyroidism; settings: 54 patients, after 1 year of treatment, every other day
[3] = test system: adults with chronic hypoparathyroidism; settings: supplements adjusted to target serum calcium

| Molecule | 9-min walk-run test ([1]; seven patients, before and after 3 years of treatment, twice a day) | fatigue and physical endurance described by patients ([1]; several patients, during PTH treatment) | QoL, mental component score and physical component score (RAND 36-Item Health Survey) [2] | QoL (SF-36), between-group differences versus placebo [3] |
| --- | --- | --- | --- | --- |
| PTH 1-34: PTH polypeptide of SEQ ID NO: 51 (PTH 1-34) (SVSEIQLMHNLGKHLNSMERVEWLRKKLQDVHNF; human PTH 1-34) | no significant changes | less fatigue and greater physical endurance |  |  |
| PTH 1-84: PTH polypeptide of SEQ ID NO: 1 (PTH 1-84) (protein, listed as Homo sapiens) SVSEIQLMHNLGKHLNSMERVEWLRKKLQDVHNFVALGAPLAPRDAGSQRPRKKEDNVLVESHEKSLGEADKADVNVLTKAKSQ |  |  | improvement in QoL | not statistically significant |
